Where a name gives a salt, the structure may show the parent alone. Read-outs that look alike come from different tables or passages of the source. A value given as a limit tells only on which side of the number the result lay.

For experiment [1], the target named is DNMT1 (Homo sapiens, UniProt P26358). Nature of the experiment: DNMT1 biochemical activity, breaklight assay and/or SPA assay.
Experiment [2] relates to erythroid progenitor cells (EPCs). Nature of the experiment: Fetal hemoglobin (HbF) ELISA in day 7 erythroid progenitor cells.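 Note: for fetal hemoglobin induction normalized to vehicle-treated cells.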 Format: cell-based, human. The note with it: Homo sapiens, Erythroid progenitor cell, HbF ELISA, day 7 EPCs, 5 days; read-out: EPC ELISA (pEC50 category) (converted). The method, boiled down: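 CD34+-derived EPCs, 1,000 cells/well, rhEPO 3 U/mL; Compound A 22-pt series, […]; 5 d, 37° C, 5% CO2. Freeze-thaw lysis, anti-HbF capture + HRP anti-HbF, TMB, OD450. Normalized to DMSO wells.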

[3] abbreviates: binned activity in either the breaklight or the SPA assay.
Where [4] appears, read: breaklight assay and/or SPA assay, repeated experimental runs.
[5] abbreviates: breaklight assay and/or SPA assay, repeated experimental runs, read-out: average pIC50 against DNMT1 (converted).
Where [6] appears, read: binned activity in either the breaklight or the SPA assay, read-out: DNMT1 BioChemical (pIC50 category) (converted).

Sequence of DNMT1 (P26358 whole entry, looked up): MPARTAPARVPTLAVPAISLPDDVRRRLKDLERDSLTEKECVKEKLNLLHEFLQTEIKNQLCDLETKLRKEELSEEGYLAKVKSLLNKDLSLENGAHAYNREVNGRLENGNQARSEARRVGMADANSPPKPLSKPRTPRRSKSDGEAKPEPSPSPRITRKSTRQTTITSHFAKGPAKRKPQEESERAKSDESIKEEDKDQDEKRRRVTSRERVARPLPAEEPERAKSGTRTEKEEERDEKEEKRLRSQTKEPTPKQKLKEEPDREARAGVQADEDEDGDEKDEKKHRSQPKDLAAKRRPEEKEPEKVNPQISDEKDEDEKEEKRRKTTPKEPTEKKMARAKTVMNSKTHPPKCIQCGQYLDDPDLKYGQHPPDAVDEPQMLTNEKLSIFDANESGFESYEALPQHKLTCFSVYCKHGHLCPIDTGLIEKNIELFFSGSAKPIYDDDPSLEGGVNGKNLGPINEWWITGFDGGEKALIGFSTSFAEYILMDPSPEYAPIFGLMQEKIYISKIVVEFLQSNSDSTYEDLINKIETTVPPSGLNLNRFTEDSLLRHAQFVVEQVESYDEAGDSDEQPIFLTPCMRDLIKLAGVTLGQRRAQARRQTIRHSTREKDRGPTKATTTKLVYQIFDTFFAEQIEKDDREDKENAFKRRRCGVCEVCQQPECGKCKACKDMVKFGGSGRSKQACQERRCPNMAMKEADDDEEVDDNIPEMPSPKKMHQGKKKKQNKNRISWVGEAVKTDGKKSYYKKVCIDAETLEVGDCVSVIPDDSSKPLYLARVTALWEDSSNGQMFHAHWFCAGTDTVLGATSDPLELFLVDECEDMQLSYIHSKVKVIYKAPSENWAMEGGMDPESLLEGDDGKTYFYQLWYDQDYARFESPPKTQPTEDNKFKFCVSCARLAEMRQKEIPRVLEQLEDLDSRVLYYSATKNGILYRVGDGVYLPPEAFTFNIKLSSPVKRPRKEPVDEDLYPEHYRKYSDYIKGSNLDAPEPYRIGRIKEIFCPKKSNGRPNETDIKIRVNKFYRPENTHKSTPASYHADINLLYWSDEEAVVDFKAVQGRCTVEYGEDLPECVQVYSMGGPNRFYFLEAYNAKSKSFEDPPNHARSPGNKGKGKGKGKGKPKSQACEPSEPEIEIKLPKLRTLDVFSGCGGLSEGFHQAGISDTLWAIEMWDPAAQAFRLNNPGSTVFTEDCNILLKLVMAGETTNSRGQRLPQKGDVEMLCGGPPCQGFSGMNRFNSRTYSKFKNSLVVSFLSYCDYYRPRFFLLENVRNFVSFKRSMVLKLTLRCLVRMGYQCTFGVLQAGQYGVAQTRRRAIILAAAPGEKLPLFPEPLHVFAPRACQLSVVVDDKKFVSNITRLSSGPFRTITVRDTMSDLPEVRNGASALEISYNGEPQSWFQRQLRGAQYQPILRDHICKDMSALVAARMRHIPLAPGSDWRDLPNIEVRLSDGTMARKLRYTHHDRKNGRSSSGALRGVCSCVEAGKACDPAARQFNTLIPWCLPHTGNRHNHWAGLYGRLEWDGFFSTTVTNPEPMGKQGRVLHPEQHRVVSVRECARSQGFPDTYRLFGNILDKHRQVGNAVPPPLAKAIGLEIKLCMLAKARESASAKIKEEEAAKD

Take `N#Cc1c(SC(C(N)=O)c2ccccc2)nc(N2CC[C@H](N)C2)c(C#N)c1C1CC1` (stereo partly drawn) [Example 115, 2-({6-[(3S)-3-Aminopyrrolidin-1-yl]-3,5-dicyano-4-cyclopropylpyridin-2-yl}sulfanyl)-2-phenylacetamide]: the “DNMT1 BioChemical (pIC50 category)” value in experiment [1] (setting [3]) is listed as “D (Category D: ≥6.5)”. Further, in experiment [1] (setting [4]), the “average pIC50 against DNMT1” value is greater than 6.5. In addition, the IC50 in experiment [1] (setting [5]) was 200 nM. In addition, the EC50 in experiment [2] is less than 316 nM.
Regarding `CCc1c(C#N)c(SC(C(N)=O)c2ccccc2)nc(N(C)CCN2CCC(O)(CN)CC2)c1C#N` (stereo not drawn) [Example 170, 2-((6-((2-(4-(Aminomethyl)-4-hydroxypiperidin-1-yl)ethyl)(methyl)amino)-3,5-dicyano-4-ethylpyridin-2-yl)thio)-2-phenylacetamide], the “DNMT1 BioChemical (pIC50 category)” value in experiment [1] (setting [3]) was “D (Category D: ≥6.5)”. Further, in experiment [2], the EC50 is 1000 to 31600 nM.
For `CCc1c(C#N)c(SC(C(N)=O)c2ccccc2)nc(N2CCC(C)(NCCO)CC2)c1C#N` (stereo not drawn) [Example 643, 2-((3,5-dicyano-4-ethyl-6-(4-((2-hydroxyethyl)amino)-4-methylpiperidin-1-yl)pyridin-2-yl)thio)-2-phenylacetamide] the same measures were “D (Category D: ≥6.5)” and less than 316 nM.
As to `CCc1c(C#N)c(SCc2ccc(NC(=O)CN)cc2)nc(N2CCCN(C)CC2)c1C#N` [Example 302, 2-Amino-N-(4-(((3,5-dicyano-4-ethyl-6-(4-methyl-1,4-diazepan-1-yl)pyridin-2-yl)thio)methyl)phenyl)acetamide], the IC50 in experiment [1] (setting [6]) is 316 to 1000 nM. For the same compound, the EC50 in experiment [2] is greater than 31600 nM.
With `CCc1c(C#N)c(S[C@@H](C(N)=O)c2ccccc2)nc(N2CC[C@H](O)C2)c1C#N` [Example 168, (R)-2-((3,5-Dicyano-4-ethyl-6-((S)-3-hydroxypyrrolidin-1-yl)pyridin-2-yl)thio)-2-phenylacetamide], in experiment [1] (setting [3]), the “DNMT1 BioChemical (pIC50 category)” value is listed as “D (Category D: ≥6.5)”. Further, the “average pIC50 against DNMT1” value in experiment [1] (setting [4]) is greater than 6.5. Besides, the IC50 in experiment [1] (setting [5]) is 200 nM. The EC50 in experiment [2] is 316 to 1000 nM.
For `CCc1c(C#N)c(SC(C(N)=O)c2ccccc2)nc(N2CCO[C@H](CNCC(C)(C)C)C2)c1C#N` (stereo partly drawn) [Example 555], the “DNMT1 BioChemical (pIC50 category)” value in experiment [1] (setting [3]) was “D (Category D: ≥6.5)”. Besides, the EC50 in experiment [2] is less than 316 nM.
Consider `CCc1c(C#N)c(SC(C(N)=O)c2ccccc2)nc(N2CCN(Cc3cnsc3)CC2)c1C#N` (stereo not drawn) [Example 197, 2-((3,5-Dicyano-4-ethyl-6-(4-(isothiazol-4-ylmethyl)piperazin-1-yl)pyridin-2-yl)thio)-2-phenylacetamide], for which, in experiment [1] (setting [6]), the IC50 is 316 to 1000 nM. The EC50 in experiment [2] was 316 to 1000 nM.
As for `CCc1c(C#N)c(SC(C(N)=O)c2ccccc2)nc(N2CCC(NC(=O)CN)CC2)c1C#N` (stereo not drawn) [Example 137, 2-Amino-N-(1-(6-((2-amino-2-oxo-1-phenylethyl)thio)-3,5-dicyano-4-ethylpyridin-2-yl)piperidin-4-yl)acetamide, Trifluoroacetic Acid Salt], the “DNMT1 BioChemical (pIC50 category)” value in experiment [1] (setting [3]) is on record as “D (Category D: ≥6.5)”. Besides, the “average pIC50 against DNMT1” value in experiment [1] (setting [4]) is given as greater than 6.5. For the same compound, in experiment [2], the EC50 was 316 to 1000 nM.
In the case of `CCc1c(C#N)c(SC(C(N)=O)c2ccccc2)nc(N(C)CCN2CCCCCC2)c1C#N` (stereo not drawn) [Example 477, 2-((6-((2-(azepan-1-yl)ethyl)(methyl)amino)-3,5-dicyano-4-ethylpyridin-2-yl)thio)-2-phenylacetamide], the “DNMT1 BioChemical (pIC50 category)” value in experiment [1] (setting [3]) is listed as “D (Category D: ≥6.5)”. Moreover, the “average pIC50 against DNMT1” value in experiment [1] (setting [4]) is given as greater than 6.5. Further, the IC50 in experiment [1] (setting [5]) is 100 nM. Besides, in experiment [2], the EC50 was less than 316 nM.
Take `CCc1c(C#N)c(SC(C(N)=O)c2ccccc2)nc(N2CC[C@@H](OP(=O)(O)O)C2)c1C#N` (stereo partly drawn) [Example 416, (3R)-1-(6-((2-amino-2-oxo-1-phenylethyl)thio)-3,5-dicyano-4-ethylpyridin-2-yl)pyrrolidin-3-yl dihydrogen phosphate]: the IC50 in experiment [1] (setting [6]) is 1000 to 31600 nM. The EC50 in experiment [2] was 1000 to 31600 nM.
On to `CCc1c(C#N)c(SC(C(N)=O)c2ccccc2)nc(N2CCC(OCCN)CC2)c1C#N` (stereo not drawn) [Example 149, 2-((6-(4-(2-Aminoethoxy)piperidin-1-yl)-3,5-dicyano-4-ethylpyridin-2-yl)thio)-2-phenylacetamide, Trifluoroacetic Acid Salt], for which the “DNMT1 BioChemical (pIC50 category)” value in experiment [1] (setting [3]) is “D (Category D: ≥6.5)”. Besides, the “average pIC50 against DNMT1” value in experiment [1] (setting [4]) is recorded as greater than 6.5. For the same compound, the EC50 in experiment [2] is less than 316 nM.
`CCc1c(C#N)c(SC(C(N)=O)c2ccccc2)nc(N2CCC(N3CCC[C@H]3CO)CC2)c1C#N` (stereo partly drawn) [Example 441, 2-((3,5-dicyano-4-ethyl-6-(4-((S)-2-(hydroxymethyl)pyrrolidin-1-yl)piperidin-1-yl)pyridin-2-yl)thio)-2-phenylacetamide]: the “DNMT1 BioChemical (pIC50 category)” value in experiment [1] (setting [3]) is reported as “D (Category D: ≥6.5)”. In addition, the EC50 in experiment [2] was less than 316 nM.
For `CC1CN(c2nc(SC(C(N)=O)c3ccccc3)c(C#N)c(C3CC3)c2C#N)CCN1` (stereo not drawn) [Example 19, 2-((3,5-Dicyano-4-cyclopropyl-6-(3-methylpiperazin-1-yl)pyridin-2-yl)thio)-2-phenylacetamide], the IC50 in experiment [1] (setting [6]) was 316 to 1000 nM. Besides, the EC50 in experiment [2] is less than 316 nM.
With `C[C@@H](N)C(=O)NC1CCN(c2nc(SC(C(N)=O)c3ccccc3)c(C#N)c(C3CC3)c2C#N)CC1` (stereo partly drawn) [Example 372, (2R)-2-Amino-N-(1-(6-((2-amino-2-oxo-1-phenylethyl)thio)-3,5-dicyano-4-cyclopropylpyridin-2-yl)piperidin-4-yl)propanamide], the “DNMT1 BioChemical (pIC50 category)” value in experiment [1] (setting [3]) is listed as “D (Category D: ≥6.5)”. In addition, the EC50 in experiment [2] is 316 to 1000 nM.
For `CCc1c(C#N)c(SCc2ccc(N3CCN(C)CC3)cc2)nc(N2CCCN(C)CC2)c1C#N` [Example 384, 4-Ethyl-2-(4-methyl-1,4-diazepan-1-yl)-6-((4-(4-methylpiperazin-1-yl)benzyl)thio)pyridine-3,5-dicarbonitrile], the IC50 in experiment [1] (setting [6]) is 316 to 1000 nM. In addition, in experiment [2], the EC50 is greater than 31600 nM.
For `CCc1c(C#N)c(SC(C(N)=O)c2ccc(S(=O)(=O)NC)cc2)nc(N2CCCN(C)CC2)c1C#N` (stereo not drawn) [Example 378] the same measures were 316 to 1000 nM and 1000 to 31600 nM.
For `CCc1c(C#N)c(S[C@H](C(N)=O)c2ccccc2)nc(N2CC[C@H](O)C2)c1C#N` [Example 320, (S)-2-((3,5-Dicyano-4-ethyl-6-((S)-3-hydroxypyrrolidin-1-yl)pyridin-2-yl)thio)-2-phenylacetamide] the same measures were 1000 to 31600 nM and 316 to 1000 nM.
For the compound `N#Cc1c(SC(C(N)=O)c2ccccc2)nc(N2CCC(NC(=O)CN)CC2)c(C#N)c1C1CC1` (stereo not drawn) [Example 642, 2-amino-N-(1-(6-((2-amino-2-oxo-1-phenylethyl)thio)-3,5-dicyano-4-cyclopropylpyridin-2-yl)piperidin-4-yl)acetamide formate], the “DNMT1 BioChemical (pIC50 category)” value in experiment [1] (setting [3]) was “D (Category D: ≥6.5)”. The EC50 in experiment [2] was 1000 to 31600 nM.
For `CCc1c(C#N)c(SC(C(N)=O)c2ccccc2)nc(N2CCC(CN)C2)c1C#N` (stereo not drawn) [Example 525, 2-((6-(3-(aminomethyl)pyrrolidin-1-yl)-3,5-dicyano-4-ethylpyridin-2-yl)thio)-2-phenylacetamide] the same measures were “D (Category D: ≥6.5)” and less than 316 nM.
On to `CCc1c(C#N)c(SC(C(N)=O)C2CCNCC2)nc(N(C)C)c1C#N` (stereo not drawn) [Example 157, 2-((3,5-dicyano-6-(dimethylamino)-4-ethylpyridin-2-yl)thio)-2-(piperidin-4-yl)acetamide], for which, in experiment [1] (setting [6]), the IC50 is 1000 to 31600 nM. In experiment [2], the EC50 was 1000 to 31600 nM.
Consider `CCc1c(C#N)c(SC(C(N)=O)c2cccc(P(C)(C)=O)c2)nc(N(C)C)c1C#N` (stereo not drawn) [Example 419, 2-((3,5-Dicyano-6-(dimethylamino)-4-ethylpyridin-2-yl)thio)-2-(3-(dimethylphosphoryl)phenyl)acetamide], for which the IC50 in experiment [1] (setting [6]) was 316 to 1000 nM. The EC50 in experiment [2] was 1000 to 31600 nM.
Consider `CCc1c(C#N)c(SC(C(N)=O)c2cccc(OCCN(C)C)c2)nc(N(C)C)c1C#N` (stereo not drawn) [Example 407, 2-(3,5-dicyano-6-(dimethylamino)-4-ethylpyridin-2-ylthio)-2-(3-(2-(dimethylamino)ethoxy)phenyl)acetamide], for which the “DNMT1 BioChemical (pIC50 category)” value in experiment [1] (setting [3]) is on record as “D (Category D: ≥6.5)”. Also, the EC50 in experiment [2] was 1000 to 31600 nM.
On to `N#Cc1c(SC(C(N)=O)c2ccccc2)nc(N2CC(NC(=O)C3(N)COC3)C2)c(C#N)c1C1CC1` (stereo not drawn) [Example 680, 3-amino-N-(1-(6-((2-amino-2-oxo-1-phenylethyl)thio)-3,5-dicyano-4-cyclopropylpyridin-2-yl)azetidin-3-yl)oxetane-3-carboxamide], for which, in experiment [1] (setting [6]), the IC50 was less than 316 nM. In addition, the EC50 in experiment [2] is 1000 to 31600 nM.
As to `CCc1c(C#N)c(SC(C(N)=O)c2ccccc2)nc(N2CCN(Cc3cnco3)CC2)c1C#N` (stereo not drawn) [Example 184, 2-((3,5-Dicyano-4-ethyl-6-(4-(oxazol-5-ylmethyl)piperazin-1-yl)pyridin-2-yl)thio)-2-phenylacetamide], the IC50 in experiment [1] (setting [6]) is 316 to 1000 nM. Besides, the EC50 in experiment [2] is 316 to 1000 nM.
As for `CN(CC(=O)NCCN)c1nc(SC(C(N)=O)c2ccccc2)c(C#N)c(C2CC2)c1C#N` (stereo not drawn) [Example 619, 2-((6-((2-amino-2-oxo-1-phenylethyl)thio)-3,5-dicyano-4-cyclopropylpyridin-2-yl)(methyl)amino)-N-(2-aminoethyl)acetamide hydrochloride], in experiment [1] (setting [3]), the “DNMT1 BioChemical (pIC50 category)” value is recorded as “D (Category D: ≥6.5)”. Also, the EC50 in experiment [2] was 1000 to 31600 nM.
For `CCc1c(C#N)c(SC(C(N)=O)c2ccccc2)nc(N2CC[C@H](ONC(=N)N)C2)c1C#N` (stereo partly drawn) [Example 625, 2-((3,5-dicyano-4-ethyl-6-((S)-3-(guanidinooxy)pyrrolidin-1-yl)pyridin-2-yl)thio)-2-phenylacetamide] the same measures were “D (Category D: ≥6.5)” and less than 316 nM.
